Experiment [1] concerns A. nosocomialis strain (1461911 IHMA). The experiment can be described thus: Pneumonic mouse model, colistin resistant strain. It counts as in vivo, Acinetobacter nosocomialis. The conditions noted are these: BALB/c mice, 3 per group, one intramuscular dose 24 hours after inoculation, combination groups stated together for both strains (6 mice). As for the experimental part:
One colistin susceptible (MIC 1 mg/L) A. nosocomialis strain (1204194 IHMA) and one colistin resistant (MIC 4 mg/L) A. nosocomialis strain (1461911 IHMA) are used. […] Fresh brain heart infusion broth (Merck, Darmstadt, Germany) bacterial cultures, in an aerobic atmosphere in the logarithmic growth phase (4-5 hours) at 37° C., are adjusted to a concentration of 1.0×10^6 colony forming units (CFU)/mL, as verified by both spectrophotometry (OD600 0.01-0.02 nm) and colony counting.
A pneumonic mouse model was used. 8- to 12-week-old, specific-pathogen free, male or female BALB/c mice, with 25-35 g in weight, are used for the study Animals have free access to food and water except during experimental procedures. All studies are performed in accordance with the ethical guidelines for the care and use of laboratory animals, and the protocol is approved by an independent ethical commission.
For inoculation, fresh inocula are prepared for each experiment from frozen stocks of the two A. nosocomialis isolates (1204194 and 1461911 IHMA). Broth cultures of freshly plated A. nosocomialis bacteria are grown to logarithmic phase overnight to an absorbance of 0.3 at 630 nm and diluted to 10^7 CFU/ml in saline. Mice are anesthetized by intraperitoneal (i.p.) injection of 12.5 mg/kg (5 μl) xylazine and 80 mg/kg (25 μl) ketamine and then inoculated intranasally with 0.05 ml of this bacterial suspension. […]

Another experiment concerns A. nosocomialis 1461911. The experiment can be described thus: Checkerboard colistin sulphate (CS) plus teicoplanin (TP), MIC/FIC and MBC/FBC. It counts as cell-based, Acinetobacter nosocomialis. How it is done: Checkerboard analysis to determine minimal inhibitory concentration (MIC)/fractional inhibitory concentration (FIC) and minimal […] (MBC)/fractional […] (FBC) values of colistin sulphate (CS) plus teicoplanin (TP) for 6 Gram-negative strains with a bacterial load 5(1-10)*10^5 CFU/ml in a cation-adjusted Mueller-Hinton broth (CAMHB). • a. Antimicrobial stock solutions were prepared using sterile distilled water • b. CS was added along the ordinate; TP was added along the abscissa to 96 well, flat bottom, polystyrene panels with no treatment. Colistin alone was tested in triplicates. • c. Serial 2-fold dilutions starting with 640 μg/ml CS and 640 μg/ml TP were made; 15 μl volume of the serial dilutions were added for each agent to the appropriate wells; final volume at 30 μl • d. For each agent tested alone an additional 15 μl media was added to the well. 30 μl were added in control wells where none of the agent was tested. The negative control well contains 150 μl media without any additions • e. From an overnight bacterial culture in tryptic soy broth, 100 μL was added to 10 mL of fresh tryptic soy broth. This was then incubated at 37° C. for 1.5 hour at 180 rpm. • f. Bacteria in 120 μl CAMHB were added to each well (end concentration 5(1-10)*10^5 CFU/ml) • g. Plates were incubated at 37° C. in an ambient air incubator for 24 h • h. Turbidity at OD600 is determined with a plate photometer • i. By using a one-time inoculator 3 μl from each well of the 96-well plate were transferred to three blood agar plates. The plates were incubated over night at 37° C. in an ambient air incubator • j. MIC values are defined as lowest concentration which restricts bacterial growth to OD600 ≤0.1 • k. MBC values were determined by visual reading the lowest concentration which inhibits 99.9% of the growth of bacteria in the wells • l. Determination of the fractional inhibitory concentration (FIC) index and fractional bactericidal concentration (FBC) index and characterization of antimicrobial interactions was assessed […]
FIC calculation was carried out as: (MIC of drug A, tested in combination)/(MIC of drug A, tested alone)+(MIC of drug B, tested in combination)/(MIC of drug B, tested alone). FBC calculation was carried out just as well […]
Interactive categories were calculated from checkerboard analysis using MIC results from testing each agent alone and MIC results from the combination wells adjacent to the wells with growth in them […]
b. Indifference; FIC/FBC>0.5 to<4.0 c. Antagonism; FIC/FBC≥4.0 b. A. nosocomialis 1461911 (IHMA), colistin resistant

These results are taken from US20220016200A1, “PHARMACEUTICAL COMPOSITION FOR THE TREATMENT OF CYSTIC FIBROSIS” (GALENUS G.H. AG, priority 2018, published 2022).

Bridge positions count the residues as written; N and C are the ends. Square brackets hold non-standard residues; d marks the D form. Peptide text beside a SMILES is read from it. * marks the point of attachment. Heptanoyl(5-Me) = CCC(C)CCCC(=O)*; Dab = NCC[C@H](N)C(=O)O

Regarding `CCC(C)CCCC(=O)N[C@@H](CCN)C(=O)N[C@H](C(=O)N[C@@H](CCN)C(=O)N[C@H]1CCNC(=O)[C@H]([C@@H](C)O)NC(=O)[C@H](CCN)NC(=O)[C@H](CCN)NC(=O)[C@H](CC(C)C)NC(=O)[C@@H](CC(C)C)NC(=O)[C@H](CCN)NC1=O)[C@@H](C)O` (stereo partly drawn) [CS, colistin sulphate] ({Heptanoyl(5-Me)}-[Dab]T[Dab][Dab][Dab][dL]L[Dab][Dab]T; lactam 4-C), in experiment [1], the “mice that survive until day 3” value is reported as 0/3. Moreover, in the experiment on A. nosocomialis 1461911 (Acinetobacter nosocomialis, 1461911, colistin resistant A. nosocomialis strain 1461911 IHMA, as stated for the mouse model, read-out: MIC), the minimum inhibitory concentration (MIC) (as a rule, the lowest concentration that inhibits growth of the organism) came to 4 mg/L. For the same molecule, the minimum bactericidal concentration (MBC) (as a rule, the lowest tested concentration that kills the bacteria rather than only halting them) in the experiment on A. nosocomialis 1461911 (Acinetobacter nosocomialis, 1461911, A. nosocomialis, agent alone, CAMHB, 5*10^5 CFU/ml, read-out: MBC) was 8 mg/L.
